Results reported in patent US5328909A, “Cyclopropenone derivatives” (Mitsubishi Kasei Corporation, priority 1991, dated 1994).
pIC50: −log10 of the molar value. Read-outs that look alike come from different tables or passages of the source.

Assays:
papain = target: T1, papain (Carica papaya, UniProt P00784); assay: Thiol protease inhibitory activity against papain (P-3125, Sigma); format: biochemical; details: Table 3; read-out: IC50 (μM) papain
T1 sequence (P00784 134-345): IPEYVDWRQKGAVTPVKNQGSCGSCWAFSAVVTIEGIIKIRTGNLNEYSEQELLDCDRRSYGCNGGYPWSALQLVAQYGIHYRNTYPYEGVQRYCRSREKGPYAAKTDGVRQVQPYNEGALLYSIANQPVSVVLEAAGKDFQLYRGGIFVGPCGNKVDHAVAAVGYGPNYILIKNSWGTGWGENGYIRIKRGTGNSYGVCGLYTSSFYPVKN
Description: (§1) Inhibitory activity against papain (P-3125, Sigma) and cathepsin B (C-6286, Sigma) was assayed according to the method described in a literature [Biochemical Journal, 201, 189 (1982)]. Capthesin L was purified from rat kidney according to the method in a literature [Journal of Biochemistry, 100, 35 (1986)], and the inhibitory activity against it was assayed in the same manner as described in the above literature for cathepsin B. Further, m-calpain was purified from rat brain according to a known method [Journal of Biological Chemistry, 254, p.3210 (1984)] and the inhibitory activity against it was assayed by a method described in a literature [Journal of Biological Chemistry, 259, 12489 (1984)]. The results are showing in Tables 3 and 4. It is evident from Tables 3 and 4 that the compounds in the present invention have a potent inhibitory activity against thiol proteases such as papain, cathepsin B, cathepsin L, m-calpain or the like.

cathepsin B = target: T2, cathepsin B (Bos taurus, UniProt P07688); assay: Thiol protease inhibitory activity against cathepsin B (C-6286, Sigma); format: biochemical
T2 construct: purchased Sigma C-6286
Description: as §1

cathepsin L = target: T3, cathepsin L (Rattus norvegicus, UniProt P07154); assay: Thiol protease inhibitory activity against cathepsin L purified from rat kidney; format: biochemical
T3 construct: Capthesin L was purified from rat kidney; from tissue; host or cells: rat kidney
Description: as §1

m-calpain = target: T4, m-calpain (Rattus norvegicus, UniProt Q07009); assay: Thiol protease inhibitory activity against m-calpain purified from rat brain; format: biochemical
T4 construct: m-calpain was purified from rat brain; from tissue; host or cells: rat brain
T4 sequence (Q07009 20-700 limits assumed): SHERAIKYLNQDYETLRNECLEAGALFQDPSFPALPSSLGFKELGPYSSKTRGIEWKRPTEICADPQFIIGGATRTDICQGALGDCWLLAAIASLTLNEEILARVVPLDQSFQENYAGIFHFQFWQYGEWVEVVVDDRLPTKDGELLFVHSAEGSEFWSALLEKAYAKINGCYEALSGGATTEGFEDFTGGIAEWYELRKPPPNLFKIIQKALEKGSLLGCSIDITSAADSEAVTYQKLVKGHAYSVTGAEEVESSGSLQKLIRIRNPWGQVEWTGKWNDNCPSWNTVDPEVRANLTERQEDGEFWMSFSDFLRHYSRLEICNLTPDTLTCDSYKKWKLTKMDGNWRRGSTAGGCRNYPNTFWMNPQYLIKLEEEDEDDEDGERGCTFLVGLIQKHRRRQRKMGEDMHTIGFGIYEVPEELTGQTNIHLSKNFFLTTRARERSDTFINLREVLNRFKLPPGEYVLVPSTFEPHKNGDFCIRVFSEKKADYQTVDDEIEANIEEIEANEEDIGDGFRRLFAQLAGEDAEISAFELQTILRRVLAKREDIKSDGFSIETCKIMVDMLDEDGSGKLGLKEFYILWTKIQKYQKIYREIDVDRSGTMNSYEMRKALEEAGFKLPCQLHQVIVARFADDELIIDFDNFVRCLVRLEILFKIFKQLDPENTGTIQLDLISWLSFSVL
T4 sequence (Q64537 1-270 partner): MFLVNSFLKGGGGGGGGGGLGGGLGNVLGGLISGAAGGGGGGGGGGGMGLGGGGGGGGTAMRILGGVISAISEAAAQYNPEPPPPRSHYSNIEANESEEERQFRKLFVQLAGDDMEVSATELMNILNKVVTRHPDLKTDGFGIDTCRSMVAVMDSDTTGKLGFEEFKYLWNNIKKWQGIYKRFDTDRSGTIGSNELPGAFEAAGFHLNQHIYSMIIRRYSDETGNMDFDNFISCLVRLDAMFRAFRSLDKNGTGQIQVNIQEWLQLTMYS
Method in brief: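 Papain and bovine cathepsin B assayed by a published method; cathepsin L purified from rat kidney and tested as for cathepsin B. m-Calpain purified from rat brain and assayed by a separate published method.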

[1] = Acute oral toxicity, rats observed for 7 days; details: rat, in vivo, suspension in 0.5% CMC-Na aqueous solution, SD female and male rats, 7 days observation
Description: The LD50 value of the compound (I) prepared in Example 1 is: >2,000 mg/kg.

[2] = system: microtubule-associated protein; details: after the brain ischemia; cited from earlier work
[3] = system: experimental muscular dystrophy hamster; details: cited from earlier work
[4] = system: aggregation of platelet caused by thrombin; details: cited from earlier work
cataract animal models = details: cited from earlier work
[5] = system: rat with enhanced bone destruction by administration of parathyroid hormone; details: cited from earlier work
production of IgE = details: cited from earlier work
[6] = system: cardiac infarction animal models; details: cited from earlier work
[7] = system: brain trauma models of rat; details: cited from earlier work

T3 sequence (P07154 114-288 limits assumed): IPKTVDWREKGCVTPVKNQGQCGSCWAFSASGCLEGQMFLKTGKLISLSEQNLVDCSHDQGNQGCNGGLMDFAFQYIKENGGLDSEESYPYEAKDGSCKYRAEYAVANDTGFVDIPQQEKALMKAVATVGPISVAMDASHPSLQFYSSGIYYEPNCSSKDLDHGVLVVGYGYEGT
T3 sequence (P07154 291-334 limits assumed): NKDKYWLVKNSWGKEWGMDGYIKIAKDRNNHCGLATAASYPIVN

CC(C)C[C@H](NC(=O)OCC1CCCCC1)C(=O)N[C@@H](C(C)C)[C@@H](O)c1c(-c2ccccc2)c1=O [1 (No. 77), 2-[(1S,2S)-2-{(s)-2-cyclohexylmethoxycarbonylamino-4-methylvalerylamino}-1-hydroxy-3-methylbuthyl]-3-phenylcyclopropenone]
IC50 (papain): 0.054 µM | IC50 (cathepsin B; Table 3, read-out: IC50 (μM) cathepsin B): 0.71 µM | IC50 (cathepsin L; Table 3, rat kidney enzyme, read-out: IC50 (μM) cathepsin L): 0.00086 µM | IC50 (m-calpain; Table 3, rat brain enzyme, read-out: IC50 (μM) m-calpain): 1.6 µM | LD50 at 168 h [1]: > 2000 mg/kg

CCCC[C@H](NC(=O)[C@H](CC(C)C)NC(=O)OCC1CCCCC1)C(O)c1c(-c2ccc([Si](C)(C)C)s2)c1=O (stereo partly drawn) [115 (No. 387), 2-[(2S)-2-((S)-2-cyclohexylmethoxycarbonylamino-4-methylvalerylamino)-1-hydroxy-1-hexyl]-3-(5-trimethylsilyl-2-thienyl)cyclopropenone]
IC50 (papain): 0.48 µM | pIC50 (cathepsin B): 5.82 | pIC50 (cathepsin L): 6.57 | pIC50 (m-calpain): 4.96

CC(C)CCNC(=O)[C@H](CC(C)C)NC(=O)[C@H]1O[C@@H]1C(=O)O [E-64-C]
degradation of microtubule-associated protein [2]: inhibits the degradation of microtubule-associated protein

CCOC(=O)[C@H]1O[C@@H]1C(=O)N[C@@H](CC(C)C)C(=O)NCCC(C)C [E-64-d]
life-prolonging effect [3]: life-prolonging effect | aggregation of platelet [4]: suppressed aggregation of platelet

CC(C)C[C@H](NC(=O)[C@H]1O[C@@H]1C(=O)O)C(=O)NCCCCNC(=N)N [E-64]
effect on cataract (cataract animal models): effective on cataract | calcium concentration in blood [5]: decrease | hydroxyproline concentration in blood [5]: decrease

NC(N)=NCCCCNC(=O)[C@H](Cc1ccccc1)NC(=O)[C@H]1O[C@@H]1C(=O)O [Estatin A]
production of IgE (production of IgE): specifically inhibit the production of IgE | production of IgG (production of IgE): without affecting on the production of IgG | calcium concentration in blood [5]: decrease | hydroxyproline concentration in blood [5]: decrease

CCOC(=O)[C@@H]1O[C@H]1C(=O)NC(CC(C)C)C(=O)N1CCN(Cc2ccc(OC)c(OC)c2OC)CC1.CCOC(=O)[C@@H]1O[C@H]1C(=O)NC(CC(C)C)C(=O)N1CCN(Cc2ccc(OC)c(OC)c2OC)CC1.O=S(=O)(O)O (stereo partly drawn) [NCO-700]
effect on cardiac infarction [6]: effective on cardiac infarction

CC(=O)N[C@@H](CC(C)C)C(=O)N[C@@H](CC(C)C)C(=O)N[C@H](C=O)CCCNC(=N)N [leupetin]
axon protection [7]: can protect axon
